Measurements from patent publication US10273290B2, “Hydrocarbon double-stapled stabilized HIV-1 GP41 heptad repeat domain peptides” (DANA-FARBER CANCER INSTITUTE, INC., priority 2009, dated 2019).
Bridge positions count the residues as written; N and C are the ends. Square brackets hold non-standard residues; d marks the D form. Peptide text beside a SMILES is read from it. S5 = C=CCCC[C@](C)(N)C(=O)O; Nle = CCCC[C@H](N)C(=O)O

Columns and labels:
[1] = tested on: pepsin; assay: Protease resistance assay, pepsin at pH 2; details: pepsin (isolated protease) in buffer, pH 2
Method: The DAD signal was set to 280 nm with an 8 nm bandwidth and MSD set to scan mode with one channel at (M+2H)/2, +1 mass units and the other at (M+3H)/3, +1 mass units. […] Reaction samples were composed of 5 μL peptide in DMSO (1 mM stock) and 195 μL of buffer consisting of 50 mM phosphate buffer pH 7.4 containing 2 mM CaCl2. Upon injection of the 0 hr time point sample, 2 μL of 50 ng/μL chymotrypsin (Sigma) was added and the amount of intact peptide quantitated by serial injection over time. An internal control of acetylated tryptophan carboxamide at a concentration of 100 μM was used to normalize each MSD data point. A plot of MSD area versus time yielded an exponential decay curve and half-lives were determined by nonlinear regression analysis using Prism software (GraphPad). The assay was also performed using trypsin and pepsin in their appropriate buffer conditions.

[2] = Chymotrypsin, pH 7
From the text: Table printed on a drawing sheet, FIG. 17C
Title: Chymotrypsin, pH 7
First reader's note: The table also serves as the legend of the plot of fraction intact over time; the line and marker symbols are left out.

[3] = target: T1, chymotrypsin (Bos taurus, UniProt P00766); assay: Protease resistance assay, chymotrypsin (LC/MS); format: in vitro ADME; details: pH 7.4, 0.5 chymotrypsin, peptide 25 μM
T1 construct: purchased Sigma
Method: The DAD signal was set to 280 nm with an 8 nm bandwidth and MSD set to scan mode with one channel at (M+2H)/2, +1 mass units and the other at (M+3H)/3, +1 mass units. Integration of each MSD signal yielded areas under the curve of >10^8 counts. Reaction samples were composed of 5 μL peptide in DMSO (1 mM stock) and 195 μL of buffer consisting of 50 mM phosphate buffer pH 7.4 containing 2 mM CaCl2. Upon injection of the 0 hr time point sample, 2 μL of 50 ng/μL chymotrypsin (Sigma) was added and the amount of intact peptide quantitated by serial injection over time. An internal control of acetylated tryptophan carboxamide at a concentration of 100 μM was used to normalize each MSD data point. A plot of MSD area versus time yielded an exponential decay curve and half-lives were determined by nonlinear regression analysis using Prism software (GraphPad).

[4] = tested on: resistant primary R5 isolate YU2; assay: Luciferase-based HIV-1 infectivity assay, YU2; format: cell-based; details: compared to T649v
From the text: Also the direct inhibitory activity of modified polypeptides and the antibodies targeted thereto can be quantified based upon their capacity to directly block HIV infection of CD4-positive and CCR5-expressing canine thymus cells. Recombinant HIV-1 viruses (eg. HXBc2, YU2, and additional strains available through the NIH AIDS Research and Reference Reagent Program) expressing firefly luciferase and containing the indicated envelope glycoproteins can be used to infect Cf2Th-CD4-CCR5/CXCR4 cells in the presence of serially diluted modified HIV-1 gp41 polypeptides or antibodies targeted thereto After 48 hours, the cells are lysed and luciferase activity is quantified (Si, Z. H., M. Cayabyab, and J. Sodroski, Journal of Virology, 2001. 75(9): p. 4208-4218 Si, Z. H., et al., PNAS, 2004. 101(14): p. 5036-5041). The identical experiment is performed with the amphotropic murine leukemia virus (AMLV), to monitor for any nonspecific effects of the modified polypeptides or antibodies. […]
HIV-1 infectivity assays were performed using known methods (Madani et al., 2007 Inhibition of human immunodeficiency virus envelope glycoprotein-mediated single cell lysis by low-molecular-weight antagonists of viral entry. J Virol, 81: 532-538; and Si et al., 2001 Envelope glycoprotein determinants of neutralization resistance in a simian-human immunodeficiency virus (SHIV-HXBc2P 3.2) derived by passage in monkeys. J Virol, 75:4208-4218; both incorporated herein by reference). […] D-luciferin (50 μL of 1 mM stock in 100 μL luciferin buffer) is then added to each well and luciferase activity measured using a luminometer (EG&G Berthold).
To assess the functional impact of hydrocarbon stapling on gp41-based fusion inhibitor activity, SAH-gp41 peptides were tested and compared to their unmodified counterparts in a luciferase-based HIV-1 infectivity assay. Recombinant HIV-1 bearing the envelope glycoproteins from three distinct HIV-1 strains, HXBc2, ADA, and HXBc2P 3.2, and a negative control virus bearing the amphotropic murine leukemia virus (A-MLV) envelope glycoproteins, were evaluated. […]

[5] = Circular dichroism, α-helical content; format: physicochemical
Method: The α-helicity of stapled modified polypeptides was compared to their unmodified counterparts by circular dichroism. CD spectra were obtained on an Aviv spectropolarimeter at 20° C. using the following standard measurement parameters: wavelength, 190-260 nm; step resolution, 0.5 nm; speed, 20 nm/sec; accumulations, 10; response, 1 sec; bandwidth, 1 nm; path length, 0.1 cm. The α-helical content of each peptide was calculated by dividing the mean residue ellipticity [θ]222obs, by the reported [θ]222obs for a model helical peptide (Forood, B., E. J. Feliciano, and K. P. Nambiar, PNAS, 1993. 90(3): p. 838-842; J. Martin Scholtz, Biopolymers, 1991. 31(13): p. 1463-1470; Lawless, M. K., et al., Biochemistry, 1996. 35(42): p. 13697-13708) or using, for example, the Aviv machine using CDNN software developed by Brohm in order to deduce five different secondary structure fractions (helix, parallel and antiparallel beta-sheet, beta-turn and random coil). Protein Engineering, 1992. 5(3); p. 191-195
In order to evaluate secondary structure improvements of hydrocarbon-stapled peptides, we record and analyze circular dichroism (CD) spectra on an Aviv Biomedical spectrometer (model 410), as described above. […] The CD spectra are initially plotted as wavelength versus millidegree. […] After conversion to mean residue ellipticity, percent α-helicity can be calculated using the equation, % helicity=100×[θ]222/^max[θ]222, where ^max[θ]222=−40,000×[1−(2.5/number of amino acid residues)]. We also employ the curve-fitting CDDN software that is bundled with our spectrometer to calculate the relative fractions of secondary structure including α-helix, parallel and antiparallel β-sheet, β-turn and random coil.

Row | Compound | half-life at 25 μM [1] [h] | Half-Life [2] [h] | Half-Life [3] [h] | anti-YU2 activity, in words [4] | % helicity at pH 2 ([5]; pH 2) [%] | % helicity at pH 7 ([5]; pH 7) [%]
1 | CCCC[C@H](NC(C)=O)C(=O)N[C@H](C(=O)N[C@@H](Cc1c[nH]c2ccccc12)C(=O)N[C@@]1(C)CCCC=CCCC[C@@](C)(C(=O)N[C@@H](CCC(=O)O)C(=O)N[C@H](C(=O)N[C@@H](CC(N)=O)C(=O)N[C@@H](CC(N)=O)C(=O)N[C@@H](Cc2ccc(O)cc2)C(=O)N[C@H](C(=O)N[C@@H](CO)C(=O)N[C@@H](CC(C)C)C(=O)N[C@H](C(=O)N[C@@H](Cc2c[nH]cn2)C(=O)N[C@@H](CO)C(=O)N[C@@H](CC(C)C)C(=O)N[C@H](C(=O)N[C@@H](CCC(=O)O)C(=O)N[C@@H](CCC(=O)O)C(=O)N[C@@H](CO)C(=O)N[C@@H](CCC(N)=O)C(=O)N[C@@H](CC(N)=O)C(=O)N[C@@H](CCC(N)=O)C(=O)N[C@@H](CCC(N)=O)C(=O)N[C@@H](CCC(=O)O)C(=O)N[C@@H](CCCCN)C(=O)N[C@@H](CC(N)=O)C(=O)N[C@@H](CCC(=O)O)C(=O)N[C@@H](CCC(N)=O)C(=O)N[C@@H](CCC(=O)O)C(=O)N[C@@H](CC(C)C)C(=O)N[C@@H](CC(C)C)C(=O)N[C@@H](CCC(=O)O)C(N)=O)[C@@H](C)CC)[C@@H](C)CC)[C@@H](C)O)[C@@H](C)CC)NC(=O)[C@H](CC(=O)O)NC(=O)[C@H](Cc2c[nH]c3ccccc23)NC(=O)[C@H](CCC(=O)O)NC1=O)[C@@H](C)O [SAH-gp41(626-662)(A)] (Ac-[Nle]TW[S5]EWD[S5]EINNYTSLIHSLIEESQNQQEKNEQELLE-NH2; staple 4-8; N-terminus and C-terminus assumed) | 1.97 | 1.93 | 1.32 | enhanced anti-YU2 activity | – | –
2 | CCCC[C@H](NC(C)=O)C(=O)N[C@H](C(=O)N[C@@H](Cc1c[nH]c2ccccc12)C(=O)N[C@@H](CCCC)C(=O)N[C@@H](CCC(=O)O)C(=O)N[C@@H](Cc1c[nH]c2ccccc12)C(=O)N[C@@H](CC(=O)O)C(=O)N[C@@H](CCCNC(=N)N)C(=O)N[C@@H](CCC(=O)O)C(=O)N[C@H](C(=O)N[C@@H](CC(N)=O)C(=O)N[C@@H](CC(N)=O)C(=O)N[C@@H](Cc1ccc(O)cc1)C(=O)N[C@H](C(=O)N[C@@H](CO)C(=O)N[C@@H](CC(C)C)C(=O)N[C@H](C(=O)N[C@@H](Cc1c[nH]cn1)C(=O)N[C@@H](CO)C(=O)N[C@@H](CC(C)C)C(=O)N[C@H](C(=O)N[C@@H](CCC(=O)O)C(=O)N[C@@H](CCC(=O)O)C(=O)N[C@@H](CO)C(=O)N[C@@H](CCC(N)=O)C(=O)N[C@@H](CC(N)=O)C(=O)N[C@@H](CCC(N)=O)C(=O)N[C@@]1(C)CCCC=CCCC[C@@](C)(C(=O)N[C@@H](CCC(N)=O)C(=O)N[C@@H](CCC(=O)O)C(=O)N[C@@H](CC(C)C)C(=O)N[C@@H](CC(C)C)C(=O)N[C@@H](CCC(=O)O)C(N)=O)NC(=O)[C@H](CC(N)=O)NC(=O)[C@H](CCCCN)NC(=O)[C@H](CCC(=O)O)NC1=O)[C@@H](C)CC)[C@@H](C)CC)[C@@H](C)O)[C@@H](C)CC)[C@@H](C)O [SAH-gp41(626-662)(F)] (Ac-[Nle]TW[Nle]EWDREINNYTSLIHSLIEESQNQ[S5]EKN[S5]QELLE-NH2; staple 28-32; N-terminus and C-terminus assumed) | 2.15 | 1.28 | 1.7 | enhanced anti-YU2 activity | 82 | 63
